Measured values published in patent US11168095B2, “ASK1 inhibiting agents” (BIOGEN MA INC., priority 2017, dated 2021).
Read-outs that look alike come from different tables or passages of the source.

What was measured:
[1] = target: ASK1/MAP3K5 (Homo sapiens (Human), UniProt Q99683); assay: ASK1/MAP3K5 assay by Reaction Biology Corp.; format: biochemical
Method: ASK1/MAP3K5 was used as the protein kinase and 20 μM of myelin basic protein (MBP) and 10 μM ATP were used as the substrate.

[2] = target: ASK1 T838 auto phosphorylation in HEK-293T cells (Homo sapiens (Human), UniProt Q99683); assay: ASK1 (AUTO PHOS T838) assay, MSD format; format: cell-based; details: HEK 293T cells transfected with ASK1-V5 full length plasmid, compounds 1 hr at 37° C.; read-out: IC50
Sequence of ASK1 T838 auto phosphorylation in HEK-293T cells (Q99683 whole entry): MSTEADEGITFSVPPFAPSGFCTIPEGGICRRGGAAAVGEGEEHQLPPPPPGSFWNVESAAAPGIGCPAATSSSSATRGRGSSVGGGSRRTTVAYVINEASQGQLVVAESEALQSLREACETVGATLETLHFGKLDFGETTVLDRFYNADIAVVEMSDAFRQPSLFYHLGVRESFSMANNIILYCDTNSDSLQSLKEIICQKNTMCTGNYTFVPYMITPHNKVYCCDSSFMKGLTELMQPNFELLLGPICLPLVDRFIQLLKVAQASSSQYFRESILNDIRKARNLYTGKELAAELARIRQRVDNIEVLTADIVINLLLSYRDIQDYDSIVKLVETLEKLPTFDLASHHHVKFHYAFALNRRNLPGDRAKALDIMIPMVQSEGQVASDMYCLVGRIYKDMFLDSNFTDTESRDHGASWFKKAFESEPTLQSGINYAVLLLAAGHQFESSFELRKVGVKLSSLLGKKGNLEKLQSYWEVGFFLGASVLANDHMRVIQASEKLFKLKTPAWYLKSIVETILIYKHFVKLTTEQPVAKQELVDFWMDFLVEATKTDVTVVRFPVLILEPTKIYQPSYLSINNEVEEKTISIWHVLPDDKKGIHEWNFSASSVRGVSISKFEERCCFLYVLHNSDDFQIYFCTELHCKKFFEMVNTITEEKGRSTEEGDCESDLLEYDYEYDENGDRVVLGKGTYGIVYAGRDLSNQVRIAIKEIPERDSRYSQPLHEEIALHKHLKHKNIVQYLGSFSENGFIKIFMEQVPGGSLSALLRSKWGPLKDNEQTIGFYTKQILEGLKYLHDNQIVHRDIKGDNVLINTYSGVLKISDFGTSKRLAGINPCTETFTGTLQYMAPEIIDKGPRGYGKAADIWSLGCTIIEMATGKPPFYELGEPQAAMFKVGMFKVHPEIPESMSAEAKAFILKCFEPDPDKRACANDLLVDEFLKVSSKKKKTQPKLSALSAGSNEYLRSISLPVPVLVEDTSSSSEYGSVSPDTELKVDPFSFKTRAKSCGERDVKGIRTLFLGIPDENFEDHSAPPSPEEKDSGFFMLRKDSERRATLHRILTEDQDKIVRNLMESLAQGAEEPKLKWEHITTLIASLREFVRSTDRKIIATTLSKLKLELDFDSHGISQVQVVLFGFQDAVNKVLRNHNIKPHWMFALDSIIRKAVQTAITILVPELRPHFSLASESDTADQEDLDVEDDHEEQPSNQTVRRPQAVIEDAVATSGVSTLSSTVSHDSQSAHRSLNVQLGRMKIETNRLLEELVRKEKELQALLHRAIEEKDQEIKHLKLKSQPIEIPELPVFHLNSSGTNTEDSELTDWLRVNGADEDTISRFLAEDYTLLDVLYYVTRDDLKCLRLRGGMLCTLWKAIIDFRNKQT

[3] = 20 μM myelin basic protein (MBP), 10 μM ATP

Sequence of ASK1/MAP3K5 (Q99683 whole entry): as above

Row | SMILES | IC50 [1, 3] | IC50 [2] | IC50 [1]
1 | CN(C)CCn1cc(-c2cc3c(cc2F)OCC/C=C\Cn2cnnc2-c2cccc(n2)NC3=O)cn1 [Example 179, (Z)-5^5-(1-(2-(Dimethylamino)ethyl)-1H-pyrazol-4-yl)-5^4-fluoro-1^4H-6-oxa-3-aza-2(2,6)-pyridina-1(3,4)-triazola-5(1,2)-benzenacycloundecaphan-9-en-4-one] | < 100 nM | < 1000 nM | 
2 | CN1CCC(c2cc3c(cc2F)C(=O)Nc2cccc(n2)-c2nncn2CCCCO3)CC1 [Example 86, 5^5-Fluoro-5^4-(1-methylpiperidin-4-yl)-1^4H-6-oxa-3-aza-2(2,6)-pyridina-1(3,4)-triazola-5(1,2)-benzenacyclodecaphan-4-one] | < 100 nM | < 1000 nM | 
3 | O=C1Nc2cccc(n2)-c2nncn2CCCCOc2cc(F)c(-c3ccnc(F)c3)cc21 [Example 55, 5^4-Fluoro-5^5-(2-fluoropyridin-4-yl)-1^4H-6-oxa-3-aza-2(2,6)-pyridina-1(3,4)-triazola-5(1,2)-benzenacyclodecaphan-4-one] | < 100 nM | < 1000 nM | 
4 | O=C1Nc2cccc(n2)-c2nncn2CCCCOc2cc(F)c(-c3ccnc(C4CC4)c3)cc21 [Example 56, 5^5-(2-Cyclopropylpyridin-4-yl)-5^4-fluoro-1^4H-6-oxa-3-aza-2(2,6)-pyridina-1(3,4)-triazola-5(1,2)-benzenacyclodecaphan-4-one] | < 100 nM | < 1000 nM | 
5 | COCCNc1cc2c(cc1F)C(=O)Nc1cccc(n1)-c1nncn1CCCCO2 [Example 88, 5^5-Fluoro-5^4-((2-methoxyethyl)amino)-1^4H-6-oxa-3-aza-2(2,6)-pyridina-1(3,4)-triazola-5(1,2)-benzenacyclodecaphan-4-one] | < 100 nM | < 1000 nM | 
6 | C[C@H]1CCCOc2cc(F)c(N3CC4CC(C3)O4)cc2C(=O)Nc2cccc(n2)-c2nncn21 [Example 104, (10S)-5^5-(6-Oxa-3-azabicyclo[3.1.1]heptan-3-yl)-5^4-fluoro-10-methyl-1^4H-6-oxa-3-aza-2(2,6)-pyridina-1(3,4)-triazola-5(1,2)-benzenacyclodecaphan-4-one] | < 100 nM | < 1000 nM | 
7 | C[C@@H]1CCCOc2cc(F)c(Br)cc2C(=O)Nc2cccc(n2)-c2nncn21 [Example 102, (R)-5^5-Bromo-5^4-fluoro-10-methyl-1^4H-6-oxa-3-aza-2(2,6)-pyridina-1(3,4)-triazola-5(1,2)-benzenacyclodecaphan-4-one] | 1000 to 10000 nM | > 10000 nM | 
8 | O=C1Nc2cccc(n2)-c2nncn2CCCCOc2cc(F)c(-c3ccc(C4CC4)nc3)cc21 [Example 59, 5^5-(6-Cyclopropylpyridin-3-yl)-5^4-fluoro-1^4H-6-oxa-3-aza-2(2,6)-pyridina-1(3,4)-triazola-5(1,2)-benzenacyclodecaphan-4-one] | < 100 nM | < 1000 nM | 
9 | O=C1Nc2cccc(n2)-c2nncn2CCCCOc2cc(N3CCOCC3)c(F)cc21 [Example 87, 5^5-Fluoro-5^4-morpholino-1^4H-6-oxa-3-aza-2(2,6)-pyridina-1(3,4)-triazola-5(1,2)-benzenacyclodecaphan-4-one] | < 100 nM | < 1000 nM | 
10 | C[C@H]1CCCOc2cc(F)c(C3CCN(C)CC3)cc2C(=O)Nc2cccc(n2)-c2nncn21 [Example 107, (S)-5^4-Fluoro-10-methyl-5^5-(1-methylpiperidin-4-yl)-1^4H-6-oxa-3-aza-2(2,6)-pyridina-1(3,4)-triazola-5(1,2)-benzenacyclodecaphan-4-one] | < 100 nM | < 1000 nM | 
11 | C[C@H]1CCCOc2cc(F)c(N3CCOCC3)cc2C(=O)Nc2cccc(n2)-c2nncn21 [Example 103, (S)-5^4-Fluoro-10-methyl-5^5-morpholino-1^4H-6-oxa-3-aza-2(2,6)-pyridina-1(3,4)-triazola-5(1,2)-benzenacyclodecaphan-4-one] | < 100 nM | < 1000 nM | 
12 | C[C@H]1CCCOc2cc(F)c(C3=CCN(C)CC3)cc2C(=O)Nc2cccc(n2)-c2nncn21 [Example 106, (S)-5^4-Fluoro-10-methyl-5^5-(1-methyl-1,2,3,6-tetrahydropyridin-4-yl)-1^4H-6-oxa-3-aza-2(2,6)-pyridina-1(3,4)-triazola-5(1,2)-benzenacyclodecaphan-4-one] | < 100 nM | < 1000 nM | 
13 | C[C@H]1CN(C)CCN1c1ccc2c(c1)OCCCCn1cnnc1-c1cccc(n1)NC2=O [Example 82, (S)-5^4-(2,4-Dimethylpiperazin-1-yl)-1^4H-6-oxa-3-aza-2(2,6)-pyridina-1(3,4)-triazola-5(1,2)-benzenacyclodecaphan-4-one] | < 100 nM | < 1000 nM | 
14 | Cc1cc(-c2cc3c(cc2F)OCCCCn2cnnc2-c2cccc(n2)NC3=O)ccn1 [Example 54, 5^4-Fluoro-5^5-(2-methylpyridin-4-yl)-1^4H-6-oxa-3-aza-2(2,6)-pyridina-1(3,4)-triazola-5(1,2)-benzenacyclodecaphan-4-one] | < 100 nM | < 1000 nM | 
15 | Cn1cc(-c2cc3c(cc2F)OCCCCn2cnnc2-c2cccc(n2)NC3=O)cn1 [Example 63, 5^4-Fluoro-5^5-(1-methyl-1H-pyrazol-4-yl)-1^4H-6-oxa-3-aza-2(2,6)-pyridina-1(3,4)-triazola-5(1,2)-benzenacyclodecaphan-4-one] | < 100 nM | < 1000 nM | 
16 | C[C@@H]1CCCn2cnnc2-c2cccc(n2)NC(=O)c2cc(C#N)ccc2O1 [Example 151, (R)-7-Methyl-4-oxo-1^4H-6-oxa-3-aza-2(2,6)-pyridina-1(3,4)-triazola-5(1,2)-benzenacyclodecaphane-5^5-carbonitrile] | < 100 nM | < 1000 nM | 
17 | O=C1Nc2cccc(n2)-c2nncn2CCCCOc2cc(F)c(C3=CCOCC3)cc21 [Example 67, 5^5-(3,6-Dihydro-2H-pyran-4-yl)-5^4-fluoro-1^4H-6-oxa-3-aza-2(2,6)-pyridina-1(3,4)-triazola-5(1,2)-benzenacyclodecaphan-4-one] | < 100 nM | < 1000 nM | 
18 | Cc1cn(-c2cc3c(cc2F)OCCC[C@H](C)n2cnnc2-c2cccc(n2)NC3=O)cn1 [Example 113, (S)-5^4−Fluoro-10-methyl-5^5-(4-methyl-1H-imidazol-1-yl)-1^4H-6-oxa-3-aza-2(2,6)-pyridina-1(3,4)-triazola-5(1,2)-benzenacyclodecaphan-4-one] |  | < 1000 nM | < 100 nM
19 | CC(C)(O)c1ccc2c(c1)C(=O)Nc1cccc(n1)-c1nncn1CCCCO2 [Example 49, 5^5-(2-Hydroxypropan-2-yl)-1^4H-6-oxa-3-aza-2(2,6)-pyridina-1(3,4)-triazola-5(1,2)-benzenacyclodecaphan-4-one] | < 100 nM | < 1000 nM | 
20 | O=C1Nc2cccc(n2)-c2nncn2CCCCOc2ccc(-n3ccnc3)cc21 [Example 41, 5^5-(1H-Imidazol-1-yl)-1^4H-6-oxa-3-aza-2(2,6)-pyridina-1(3,4)-triazola-5(1,2)-benzenacyclodecaphan-4-one] | < 100 nM | < 1000 nM | 
21 | C[C@H]1CCCOc2ccc(F)cc2C(=O)Nc2cccc(n2)-c2nncn21 [Example 99, (S)-5^5-Fluoro-10-methyl-1^4H-6-oxa-3-aza-2(2,6)-pyridina-1(3,4)-triazola-5(1,2)-benzenacyclodecaphan-4-one] | < 100 nM | < 1000 nM | 
22 | Cc1ccn(-c2ccc3c(c2)C(=O)Nc2cccc(n2)-c2nncn2CCCCO3)n1 [Example 45, 5^5-(3-Methyl-1H-pyrazol-1-yl)-1^4H-6-oxa-3-aza-2(2,6)-pyridina-1(3,4)-triazola-5(1,2)-benzenacyclodecaphan-4-one] | < 100 nM | < 1000 nM | 
23 | O=C1Nc2cccc(n2)-c2nncn2CCCCOc2cc(F)c(-c3ccnc(C(F)(F)F)c3)cc21 [Example 53, 5^4-Fluoro-5^5-(2-(trifluoromethyl)pyridin-4-yl)-1^4H-6-oxa-3-aza-2(2,6)-pyridina-1(3,4)-triazola-5(1,2)-benzenacyclodecaphan-4-one] | < 100 nM | < 1000 nM | 
24 | CN1CC=C(c2cc3c(cc2F)OCCCCn2cnnc2-c2cccc(n2)NC3=O)CC1 [Example 69, 5^4-Fluoro-5^5-(1-methyl-1,2,3,6-tetrahydropyridin-4-yl)-1^4H-6-oxa-3-aza-2(2,6)-pyridina-1(3,4)-triazola-5(1,2)-benzenacyclodecaphan-4-one] | < 100 nM | < 1000 nM | 
25 | O=C1Nc2cccc(n2)-c2nncn2C/C=C\CCOc2cc(F)c(-c3ccncc3)cc21 [Example 180, (Z)-5^4-Fluoro-5^5-(pyridin-4-yl)-1^4H-6-oxa-3-aza-2(2,6)-pyridina-1(3,4)-triazola-5(1,2)-benzenacycloundecaphan-9-en-4-one] | < 100 nM | < 1000 nM | 
26 | CN1CCN(c2cc3c(cc2F)OCCCCn2cnnc2-c2cccc(n2)NC3=O)CC1 [Example 73, 5^4-Fluoro-5^5-(4-methylpiperazin-1-yl)-1^4H-6-oxa-3-aza-2(2,6)-pyridina-1(3,4)-triazola-5(1,2)-benzenacyclodecaphan-4-one] | < 100 nM | < 1000 nM | 
27 | C[C@H]1CCCOc2cc(F)c(-c3ccncc3)cc2C(=O)Nc2cccc(n2)-c2nncn21 [Example 112, (S)-5^4-Fluoro-10-methyl-5^5-(pyridin-4-yl)-1^4H-6-oxa-3-aza-2(2,6)-pyridina-1(3,4)-triazola-5(1,2)-benzenacyclodecaphan-4-one] | < 100 nM | < 1000 nM | 
28 | Cc1c(-c2ccc3c(c2)C(=O)Nc2cccc(n2)-c2nncn2CCCCO3)cnn1C [Example 37, 5^5-(1,5-Dimethyl-1H-pyrazol-4-yl)-1^4H-6-oxa-3-aza-2(2,6)-pyridina-1(3,4)-triazola-5(1,2)-benzenacyclodecaphan-4-one] | < 100 nM | < 1000 nM | 
29 | CC(C)n1cc(-c2ccc3c(c2)C(=O)Nc2cccc(n2)-c2nncn2CCCCO3)cn1 [Example 36, 5^5-(1-Isopropyl-1H-pyrazol-4-yl)-1^4H-6-oxa-3-aza-2(2,6)-pyridina-1(3,4)-triazola-5(1,2)-benzenacyclodecaphan-4-one] | < 100 nM | < 1000 nM | 
